Earlier results on two compounds are cited in patent publication US20080299050A1, “TOPICAL THERAPIES FOR ORAL MUCOSITIS AND OTHER CONDITIONS” (DrugTech Corporation, priority 2006, published 2008).

One series concerns gingiva. The note with it: administered systemically.
A further series relates to gingival wound. The conditions noted are these: by mouth for up to 8 weeks prior to gingival excision.
For series [1] the following is noted: very large dose applied topically to a pressure ulcer.
In series [2] the test system is human slin fibroblast cultures.

Turning to `O=C1N=C([O-])NC1(c1ccccc1)c1ccccc1.[Na+]` [phenyloin sodium], the side effect result with gingiva is “gingival hyperplasia”. For the same compound, the gingival wound healing entry in the series with gingival wound is on record as “greatly enhanced”.
Turning to `O=C1NC(=O)C(c2ccccc2)(c2ccccc2)N1` [phenyloin, 5,5-diphenyl-2,4-imidazolidinedione], the “systemic absorption of phenyloin” value in series [1] is “little systemic absorption”. Further, the “cell proliferation (enhancing effect)” value in series [2] (higher concentration (25 or 50 μg/ml) or longer incubation time (25 h or 48 h)) is “reduced or reversed”. Further, the cell proliferation result in series [2] (low concentration (5 μg/ml) and short incubation time (3 h)) is “enhanced”.
